For orientation: IC50 means the point on the concentration scale where inhibition reaches its midpoint. Higher therefore signals weaker potency.

Some results are limits rather than exact numbers.

This experiment addresses Protein disulfide-isomerase (Homo sapiens, UniProt P07237). Description: Reductase Activity Assay. The note with it: pH 7. As for the experimental part:
Reductase activity was assayed by measuring the PDI-catalyzed reduction of insulin in the presence of DTT, thus measuring the aggregation of reduced insulin chains at 650nm.

Sequence of Protein disulfide-isomerase (P07237 whole entry): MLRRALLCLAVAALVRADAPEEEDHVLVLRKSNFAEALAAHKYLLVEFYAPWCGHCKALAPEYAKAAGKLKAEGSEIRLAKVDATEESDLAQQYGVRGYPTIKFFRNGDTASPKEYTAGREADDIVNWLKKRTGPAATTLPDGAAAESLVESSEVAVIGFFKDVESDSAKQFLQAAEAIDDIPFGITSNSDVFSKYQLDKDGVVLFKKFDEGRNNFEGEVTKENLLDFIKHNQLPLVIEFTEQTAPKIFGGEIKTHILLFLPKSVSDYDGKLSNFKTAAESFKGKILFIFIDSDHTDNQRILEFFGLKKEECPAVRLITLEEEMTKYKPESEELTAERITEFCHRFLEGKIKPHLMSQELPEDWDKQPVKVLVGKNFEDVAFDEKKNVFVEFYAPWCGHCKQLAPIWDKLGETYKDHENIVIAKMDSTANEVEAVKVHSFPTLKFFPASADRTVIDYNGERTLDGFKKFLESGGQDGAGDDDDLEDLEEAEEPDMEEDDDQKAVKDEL

The compound `C/C1=C\CC(OC(=O)c2ccc(O)cc2)/C(C)=C/[C@@H](O)C(C)(C)CCC1` (stereo partly specified) [Juniferdin derivative, 1] came in with a concentration for half-maximal inhibition (IC50) of 156 nM.

For the compound `COc1ccc(C(=O)OC2C/C=C(\C)CCCC(C)(C)[C@H](O)/C=C/2C)cc1` (stereo partly specified) [Juniferdin derivative, 2], the IC50 is above 10000 nM.

For the compound `CC(=O)O[C@@H]1/C=C(\C)C(OC(=O)c2ccc(O)cc2)C/C=C(\C)CCCC1(C)C` (stereo partly specified) [Juniferdin derivative, 3], inhibition was half-maximal at 453 nM (IC50). For `CC(=O)Oc1ccc(C(=O)OC2C/C=C(\C)CCCC(C)(C)[C@H](O)/C=C/2C)cc1` (stereo partly specified) [Juniferdin derivative, 4] the value was 627 nM; for `CC(=O)Oc1ccc(C(=O)OC2C/C=C(\C)CCCC(C)(C)[C@H](OC(C)=O)/C=C/2C)cc1` (stereo partly specified) [Juniferdin derivative, 5], 693 nM; for `C/C1=C\CC(OC(=O)c2ccccc2)/C(C)=C/[C@@H](O)C(C)(C)CCC1` (stereo partly specified) [Juniferdin derivative, 6], 4960 nM. In the case of `C/C1=C\CC(OC(=O)c2ccc(F)cc2)/C(C)=C/[C@@H](O)C(C)(C)CCC1` (stereo partly specified) [Juniferdin derivative, 7], the IC50 came out at 958 nM. On to `CCCCCCCCOC(=O)c1ccc(O)cc1` [Juniferdin derivative, 8], for which the IC50 is above 10000 nM. Regarding `O=C(OC1CCCCCCC1)c1ccc(O)cc1` [Juniferdin derivative, 9], the half-inhibitory concentration (IC50) came to 2850 nM. Then `O=C(OC1CCCCCCCCCCC1)c1ccc(O)cc1` [Juniferdin derivative, 10], with 565 nM. Compound `C/C1=C\[C@@H](O)C(C)(C)CCC[C@@]2(C)O[C@@H]2CC1OC(=O)c1ccc(O)cc1` (stereo partly specified) [Juniferdin derivative, 13] had a concentration for half-maximal inhibition (IC50) of 167 nM. Consider `C/C1=C\CC(OC(=O)c2ccc(O)cc2)[C@@]2(C)O[C@@H]2[C@@H](O)C(C)(C)CCC1` (stereo partly specified) [Juniferdin derivative, 14], for which the IC50 worked out at 2530 nM.

In turn, `CC1(C)CCC[C@@]2(C)O[C@@H]2CC(OC(=O)c2ccc(O)cc2)[C@@]2(C)O[C@@H]2[C@H]1O` (stereo partly specified) [Juniferdin derivative, 15] registered an IC50 above 10000 nM.

Take `C/C1=C\[C@@H](O)C(C)(C)CCC[C@@](C)(O)[C@H](O)CC1OC(=O)c1ccc(O)cc1` (stereo partly specified) [Juniferdin derivative, 16]: the IC50 is above 10000 nM. `C/C1=C\[C@@H](O)C(C)(C)CCC[C@](C)(O)[C@@H](O)CC1OC(=O)c1ccc(O)cc1` (stereo partly specified) [Juniferdin derivative, 17] gave an IC50 of 1850 nM. For `C/C1=C\CC(O)/C(C)=C/[C@@H](O)C(C)(C)CCC1` (stereo partly specified) [Juniferol, 12] the value was above 10000 nM.

The values above are taken from BindingDB's records for doi:10.1021/cb100387r (Riken Advanced Science Institute, 2011).
